Where two headings read alike, the source gives them in different places.
System: G. stearothermophilus spores
Conditions: for Average Log Reduction: nominal 0.35 ppm H2O2, blades exposed serially; for Average Log Reduction / AVERAGE LOG REDUCTION: [H2O2] average, low; for AVERAGE LOG REDUCTION: nominal 0.6 ppm H2O2 vapor from urea complex, 6×10^4 spores per blade
Procedure: Stainless steel scalpel blades were inoculated with 10 μL of inoculum containing 6×10^4 spores. The inoculum was then dried on the blade surface. Nine inoculated blades where placed in a 1 ft^3 sealed chamber constructed of acrylic. In the chamber a urea complex was confined in a glass tube with a flow restriction that allowed the concentration of peroxide in the chamber to be controlled. Three identically-inoculated blades where placed inside a covered petrie dish and placed near the chamber to serve as controls. At three day intervals, three blades were retrieved from the chamber as well as one control. These blades were subjected to a standard recovery, plating and incubation procedure from which the viable spore count and log reduction could be determined.

## OO [hydrogen peroxide]
After 3 days exposure, high 0.35, 0.2, 0.5 ppm
  Average Log Reduction: 1.12
After 7 days exposure, high 0.30, 0.2, 0.5 ppm
  Average Log Reduction: 1.83
After 9 days exposure, high 0.39, 0.2, 0.6 ppm
  Average Log Reduction: ≧4.0
After 3 days exposure, high 0.56, 0.40, 0.83 ppm
  AVERAGE LOG REDUCTION: 1.5
After 6 days exposure, high 0.66, 0.40, 0.83 ppm
  AVERAGE LOG REDUCTION: 2.7
After 9 days exposure, high 0.66, 0.40, 0.95 ppm
  AVERAGE LOG REDUCTION: ≧4.8
Nominal concentration of 0.6 ppm of hydrogen peroxide, from Table 1
  log reduction in G. stearothermophilus spores per day: ~0.5

— patent publication US20090263499A1, “AREA DECON[…] LOW-LEVEL CONCENTRATION OF […]” (Ethicon, Inc., priority 2008, published 2009)
